# Test system: DuNN MTAP KO cells
# Test: In vivo pharmacodynamic study in C3H mouse model of tibial orthotopic xenograft with DuNN MTAP KO cells
# Conditions: for Tumor volume (mean): tibial orthotopic DuNN MTAP KO tumor, compound D 1 mg/kg PO QD, PD-1 antibody 5 mg/kg I.P. QW, n=6
# Protocol: Example 1: In Vivo Pharmacodynamic Study of Compound D in C3H Mouse Model of Tibial Orthotopic Xenograft with DuNN MTAP KO Cells
# Cell culture: […] DuNN MTAP KO cells (provided by the Experimental Animal Center of Shanghai First People's Hospital) were cultured in vitro monolayer under the conditions of adding 10% fetal bovine serum and 1% Antibiotic-Antimycotic to DMEM medium, and culturing in a 5% CO2 incubator at 37° C. Pancreatin-EDTA was used twice a week for routine digestion and passage. When the cell saturation is 80%-90% and the number of cells reached the requirement, the cells were collected, counted, and inoculated.
# Animals: C3H normal mice, female, 4-6 weeks old, weighing 18-22 g. A total of 30 animals were required (24 enrolled, surplus).
# Tumor inoculation: DUNN cells were digested with 0.25% pancreatin-EDTA solution to make them into a single cell suspension, washed with PBS buffer and the cell density was adjusted to 1×10^7/ml for further use. On the day of the experiment, mice were intraperitoneally injected with 0.5% sodium pentobarbital solution at a dose of 40 mg/kg to anesthetize them. A bone hole with a diameter of about 1 mm was drilled in the upper end of the right hindlimb tibia with a 1 ml syringe to reach the marrow cavity. Be careful not to penetrate the contralateral cortical bone and cause fractures or bleeding. A 1 ml syringe and a 25 G needle were used to draw the DUNN cell suspension and it was slowly injected into the tibial bone marrow cavity of the experimental group mice at a dose of 30 μl. Be careful not to cause cell reflux or leakage. After injection, the surgical field was disinfected with 75% alcohol, and the mice were returned to their cages, covered with sterile dressings, kept warm until they woke up, and then continued to be housed for observation. Randomized dosing began when the average tumor volume reached about 150 mm^3. At the end of the experiment, mice were intraperitoneally injected with 0.5% sodium pentobarbital solution at a dose of 120 mg/kg to euthanize them. Their tibia and tumor tissues were removed, fixed with 10% formaldehyde, paraffin sections were made, stained with HE, and the histological morphology and invasion of the tumors were observed under a microscope. The expression of proliferation indicators such as Ki-67 and PCNA in tumor cells was detected by immunohistochemistry.
# Administering volume: 10 μL/g based on the weight of mice. If the weight loss exceeds 15%, stop administering immediately and resume it after the weight loss returns to less than 10%.
# Animal grouping: Animals were weighed before administration and tumor volumes were measured. Randomized grouping was based on tumor volumes (randomized block design).
# Experimental indicators: were used to examine whether tumor growth was inhibited, delayed or cured. The tumor diameter was measured twice a week with a vernier caliper. The calculation equation for tumor volumes is: V=0.5a×b^2, where a and b represent the major and minor diameters of the tumor, respectively.
# The antitumor efficacy of the compound was evaluated by TGI (%) or tumor proliferation rate T/C (%). TGI (%) reflects the tumor growth inhibition. Calculation of TGI (%): TGI (%)=[1−(average tumor volume at the end of administering in a treatment group-average tumor volume at the start of administering in this treatment group)/(average tumor volume at the end of treatment in the solvent control group-average tumor volume at the start of treatment in the solvent control group)]×100%.
# Tumor proliferation rate T/C (%): The calculation equation is as follows: T/C (%)=Ti/Vi×100%. Where Vi is the average tumor volume of the solvent control group at a certain measurement, and Ti is the average tumor volume of the treatment group at the same measurement. […]
smiles,measurement,setting,value
CN(C(=O)c1cc2c(cc1F)nc(N)c1cncn12)[C@@H]1COc2cc(C(F)(F)F)ccc21 [Compound D],tumor growth inhibition (TGI),"25-day study, compound D 1 mg/kg oral once daily, anti-PD-1 antibody 5 mg/kg intraperitoneal, C3H mice, DUNN tibial orthotopic model",30.9%
same,Tumor volume (mean),"Day 0, C3H mice",21.6 mm^3
same,Tumor volume (mean),"Day 4, C3H mice",35.7 mm^3
same,Tumor volume (mean),"Day 7, C3H mice",41.3 mm^3
same,Tumor volume (mean),"Day 10, C3H mice",52.2 mm^3
same,Tumor volume (mean),"Day 14, C3H mice",68.7 mm^3
same,Tumor volume (mean),"Day 18, C3H mice",85.2 mm^3
same,Tumor volume (mean),"Day 21, C3H mice",136.9 mm^3
same,Tumor volume (mean),"Day 25, C3H mice",225.6 mm^3
same,statistical significance (P) vs. control,"one-way ANOVA, 25-day study, same doses",did not reach statistical significance

# Reference: patent US20260174862A1, “PHARMACEUTICAL COMPOSITION COMPRISING PRMT5 INHIBITOR AND PD-1/PD-L1 INHIBITOR” (APEIRON THERAPEUTICS (HONG KONG) LTD., priority 2024, published 2026)
